From patent US7977384B1, “Anticancer tobacco cembranoids” (The University of Louisiana at Monroe, priority 2007, dated 2011) come the findings set out here.

pIC50: −log10 of the molar value. Like-named read-outs stand apart in the source and are kept apart here. Ends that are not written are not given here.

The subject of series [1] is PC-3M cells. Description: […] invasion assay. Format: cell-based, human.
Description: Invasion assays were conducted in 24-well, two compartmented, invasion chambers sold under the trademark “[sequence]” and available from Becton Dickinson, Bedford, Mass. Exponentially growing prostate cancer cell line was serum-starved for 24 hours with basal RPMI medium containing no serum or growth factors (but containing 0.1% BSA, 10 mM HEPES, 4 mM L-glutamine, 100 IU/mL penicillin G and 100 mg/mL streptomycin). The cells were then harvested and seeded at a density of 25×10^3 cells/well in the upper insert of the [sequence] invasion chamber. The lower chamber received the chemo-attractant medium, which consisted of 90% basal RPMI medium and 10% conditioned medium from the cultures of PC-3M cells expressing active Gas protein. The incubations were carried out for 24 hours, after which the [sequence] […] The number of cells migrated on the outer bottom side of the insert was counted under the microscope in six or more randomly selected fields (magnification: 100×). The final results were expressed as mean +/− SEM per 100× field. […]
To correct this probability, the growth rate of PC-3M cells was determined under identical culture conditions. […] Mean percent increase in the cell number was determined at the end of the incubation period by counting the net increase in the number of cells. […]
Series [2] deals with PC-3M cells. Description: MTT proliferation assay, prostate cell line PC-3M. Format: cell-based, human. The conditions noted are these: 50 nM dose. Background: Tetrazolium assays rely on reduction of a dye to a coloured formazan, in cell work by metabolically active cells.
Description: Proliferation of PC-3M MTT Assays. The growth of prostate cell line PC-3M was measured by 3-(4,5-dimethylthi-azol-2yl)-2,5-diphenyl tetrazolium bromide (MTT) assay. Exponentially growing cells were plated in a 96-well plate at a density of 8×10^3 cells per well and allowed to attach for 24 hours. Complete growth medium was replaced with 100 μl of RPMI serum-free medium (GIBCO-Invitrogen, NY) and culture continued at 37° C. under 5% CO2. After 24 hours of culture, the cells were treated with MTT solution at 37° C. for 4 hours. The color reaction was stopped by the addition of solubilization/stop solution (100 μl/well), and the incubation at 37° C. continued to completely dissolve the formazan product. Absorbance of the samples was determined at 595 nm with an ELISA plate reader (Bio-Rad, Hercules, Calif.).
Series [3] has as its system PC-3M cells. Put plainly: Transepithelial resistance (TER), stability of junctional complexes. It counts as cell-based, human. Here is the method: Stability of junctional complexes can be estimated by the measurement of transepithelial resistance (TER). Cells were plated at confluency and grown on six well Transwell filters (0.4 μm pore size) in complete medium. TER values were measured in duplicate wells in every 12 hours using EVOM voltohmmeter (World Precision Instruments). The TER values were normalized to the area of the monolayer filter, and calculated by subtracting the blank values from the filter and bathing medium. All cell culture media were supplemented with 25 mM Hepes, pH 7.4, and the integrity and cell density of monolayers were carefully monitored during TER measurement studies.

Series [4] in a line: Substrate control (tested compound in blank media without microorganisms). Format: physicochemical. The conditions noted are these: 14 days. The text has this: This conclusion was based on the rapid enzymatic actetate hydrolysis by most microbial species during biocatalytic screening while compound 22 was stable for 14 days in substrate control (tested compound in blank media without microorganisms).

In series [5] the test system is highly malignant +SA mouse mammary epithelial cell line. Description: Antiproliferative MTT assay on +SA mammary epithelial cells. Conditions: for pIC50: 4-day culture, MTT. It counts as cell-based. The method, then:
The antiproliferative effects of semisynthetic derivatives were tested in culture on the highly malignant +SA mouse mammary epithelial cell line maintained on serum-free media and containing 10 ng/mL EGF and 10 μg/mL insulin as mitogens. […] After a 4-day culture period, viable +SA cell number was determined by the 3-(4,5-dimethylthi-azol-2yl)-2,5-diphenyl tetrazolium bromide (MTT) colorimetric assay.

Series [6] has as its system PC-3M cells. Put plainly: Growth rate of PC-3M cells by cell counting (correction for the invasion assay). It counts as cell-based, human. Conditions: CT 50 nM, 1-24 hours; vehicle control=1. Here is the method: To correct this probability, the growth rate of PC-3M cells was determined under identical culture conditions. 25×10^3 cells were plated at hourly intervals in six-well dishes and cultured with/without CT (50 nM) for 1-24 hours. Mean percent increase in the cell number was determined at the end of the incubation period by counting the net increase in the number of cells. […] This correction was applied to the results of invasion assays.

Series [7] relates to PC-3M cells. Description: Permeability assay (paracellular diffusion of dextran). Format: cell-based, human. The conditions noted are these: CT alone. Here is the method: Permeability assay (Paracellular diffusion of Dextran). Cells were plated at confluency and grown on 12 well Transwell filters in complete medium for optimum TER development. Tetramethyl-rhodamine-dextran, with an average molecular mass of 4 kDa (available from Sigma in St. Louis, Mo.) dissolved in Hanks' Balanced Salt Solution (HBSS) to a concentration of 1 mg/ml was added to the upper chamber. The lower chamber was replaced with HBSS. At various time intervals, 100 μl aliquots were collected from the lower chamber and assayed […] spectrophotometer using excitation 530 and emission 590.

[8] abbreviates: 15-40 μM dose, compared to vehicle controls.

Regarding `C/C1=C\[C@H](O)C[C@@](C)(O)/C=C/[C@H](C(C)C)C[C@@H](O)/C(C)=C/CC1` [Compound 7, (1S,2E,4R,6R,7E,11E,13R)-2,7,11-cembratriene-4,6,13-triol], the anti-invasive activity entry in series [1] (50 nM dose) is recorded as “potent anti-invasive activity”. Also, the cytotoxicity result in series [2] is recorded as “without cytotoxicity”.
For `CCNC(=O)O[C@H]1/C=C(/C)CC/C=C(\C)CC[C@@H](C(C)C)/C=C/[C@](C)(O)C1` [Compound 9, 6-O-[N-(ethyl)carbamoyl](1S,2E,4R,6R,7Z,11E)-2,7,11-cembratriene-4,6-diol], in series [3] (baseline and CT-stimulated TER and paracellular permeability), the “stabilization of junctional complexes” value is given as “stabilized junctional complexes”.
For `CC(=O)O[C@H]1/C=C(/C)CC/C=C(\C)CC[C@@H](C(C)C)/C=C/[C@@](C)(O)C1` [Compound 22, 6-O-acetyl-(1S,2E,4S,6R,7Z,11E)-2,7,11-cembratriene-4,6-diol], the “stability in substrate control” value in series [4] is “stable”. The antiproliferative activity entry in series [5] is “reduced activity”.
For the molecule `CC(=O)O[C@H]1/C=C(\C)CC/C=C(\C)[C@H](O)C[C@@H](C(C)C)/C=C/[C@@](C)(O)C1` [Compound 25, (1S,2E,4S,6R,7E,11E,13R)-2,7,11-cembratriene-4,6,13-triol-6-O-acetate], the negative logarithm of the IC50 (pIC50) (usually the negative decadic logarithm of the IC50, by convention in mol/L) in series [5] was 4.52. Besides, the antiproliferative activity result in series [5] (setting [8]) is given as “potent antiproliferative activity”.
`CC(=O)O[C@H]1/C=C(\C)CC/C=C(\C)[C@@H](O)C[C@@H](C(C)C)/C=C/[C@@](C)(O)C1` [Compound 26, (1S,2E,4S,6R,7E,11E,13S)-2,7,11-cembratriene-4,6,13-triol-6-O-acetate]: in series [5], the antiproliferative activity result is reported as “much more active than the 13R” and the pIC50 is 4.70. For the same molecule, the antiproliferative activity entry in series [5] (setting [8]) is “potent antiproliferative activity”.
On to `CC(=O)O[C@H]1/C=C(\C)CC[C@@H]2OC(=N)S[C@@]2(C)CC[C@@H](C(C)C)/C=C/[C@@](C)(O)C1` [Compound 28, 6-O-acetyl-(1S,2E,4S,6R,7Z,11S,12S)-2,7-cembradiene-11,12-oxathiaol-21-imino-4,6-diol], for which the antiproliferative activity entry in series [5] was “devoid of activity”.
Turning to `C/C1=C\C(=O)C[C@](C)(O)/C=C/[C@H](C(C)C)CC/C(C)=C/CC1` [Compound 29, (1S,2E,4S,7E,11E)-2,7,11-cembratriene-4-ol-6-one], the antiproliferative activity entry in series [5] is recorded as “low antiproliferative activity”.
As for `C/C1=C/C(=O)C[C@](C)(O)/C=C/[C@H](C(C)C)CC/C(C)=C/CC1` [Compound 30, (1S,2E,4S,6R,7E,11E)-2,7,11-cembratriene-4-ol-6-one], the antiproliferative activity result in series [5] was “potent antiproliferative agent”; in series [5] (setting [8]), “potent antiproliferative activity”. Besides, the negative logarithm of the IC50 (pIC50) in series [5] (Mus musculus, Epithelial cell, 96 h) was 4.82. In series [5] (at higher doses), the “activity relative to parent compound 21” value is recorded as “no more active”.
Take `CC(=O)/C=C/C(CC/C(C)=C/CC/C(C)=C/C(C)=O)C(C)C` (stereo not shown) [Compound 31, (3E,7E,12E)-11-isopropyl-4,8-dimethylpentadeca-3,7,12-triene-2,14-dione]: the antiproliferative activity entry in series [5] (setting [8]) is reported as “potent antiproliferative activity”.
Take `CC(C)=CCC/C(C)=C/CC/C(C)=C/CC[C@]1(C)CCc2cc(O)cc(C)c2O1` [δ-tocotrienol, reference compound]: the pIC50 in series [5] was 5.15.
Turning to “Calcitonin (CGNLSTCMLGTYTQDFNKFHTFPQTAIGVGAP; ends and bridges not checked; cysteine pairing not given here; UniProt P01258 85-116, looked up) [CT, reference compound]”, the “increase in the number of invaded cells” value in series [1] (pooled data of multiple experiments) is “two-fold”. Moreover, the “relative CT-induced increase in cell number, pooled results of all time points” value in series [6] was found to be 1.19. The “paracellular permeability of PC-3M cells” value in series [7] was “increased”. Further, in series [3] (50 nM CT), the “effect on TER of PC-3M cell cultures” value is “dramatic reduction”.
